Source: patent publication US7138428B2, “Compounds isolated from gamboge resin having activity in inhibiting the growth of tumor/cancer cells and pharmaceutical compositions comprising the same” (Taiwan Sunpan Biotechnology Development Company, Ltd., priority 2004, dated 2006)

System: tumor/cancer cells
Test: in vitro anti-cancer tests, overall statements
Type: cell-based, human
Conditions: summary of in vitro results
Source text: The cancer cell growth inhibition test was primarily used to detect the effect of a candidate drug on cancer cell proliferation. The working principle involved therein is the ability of viable cells to shift alamarBlue (Biosource, USA) from its originally non-fluorescent oxidized state to a reduced form (fluorescent, red) having fluorescence via metabolic reaction. According to the fluorescent data result generated by the alamarBlue reagent thus obtained, the proliferation of the viable cells and cell activity can be quantified for detection.

In the case of `C=C(C)[C@@H]1CC[C@]2(CO)CC[C@]3(C)[C@H](CC[C@@H]4[C@@]5(C)CC[C@H](O)C(C)(C)[C@@H]5CC[C@]43C)[C@@H]12` [TSB-0, betulin], the “effect of inhibiting tumor/cancer cell growth (in words)” value is reported as “may not be as effective as products TSB-2 to TSB-8”.
